# Where two headings read alike, the source gives them in different places.
# Columns and labels:
# [1] = tested on: SW-480; test: MTT study with OCT3 inhibitor, SW-480; type: cell-based, human; settings: at the respective doses of inhibitor
# [2] = tested on: HCT-116; test: MTT study with OCT3 inhibitor, HCT-116; type: cell-based, human; settings: at the respective doses of inhibitor
# [3] = tested on: Human colon cancer cell line SW-480; test: XTT assay, cytotoxicity on SW-480; type: cell-based; settings: 24 h
# Excerpt: (§1) Colon cancer cell lines and culture condition: Human colon cancer cell lines HCT-116 and SW-480 were purchased from NCCS, Pune. The carcinoma cell line (HCT-116) is wild-type for TP53 and adenocarcinoma cell line (SW480) is a double-mutant for TP53 gene.
# [4] = tested on: SW-480; test: Wound healing (scratch) assay, SW-480; type: cell-based, human; settings: IC50 dose, 12-48 h
# [5] = tested on: MCF-7 cells; test: FACS-based Annexin V-FITC/PI dual staining assay; type: cell-based, human; settings: IC50 dose, 24 h
# Method: FACS-based Annexin V-FITC/PI dual staining assay: MCF-7 cells were seeded in 6-well plate at 1×10^5 cells per well and treated with an IC50 dose of complex 1 and oxaliplatin for 24 h, after which they were harvested by trypsinization and processed into cell suspensions (10^6 cells were taken from each group). Cells were centrifuged at 800 g before being re-suspended in a dye mix that included 250 μL Annexin V-FITC binding buffer, 1 μL PI solution, and 3 μL Annexin V-FITC solution as per assay kit protocol. For 15 minutes, the cell suspension was kept in dark. The BD FACS Verse was used to detect the intensities of red and green fluorescence, and Flowjo software (version 10) was used to assess the apoptotic rates of treated cells. Ten thousand events were collected to determine the population percentage. All experiments were repeated three times, and the results were presented as mean±SD.
# [6] = tested on: Human colon cancer cell line HCT-116; test: XTT assay, cytotoxicity on HCT-116; type: cell-based; settings: 24 h
# Excerpt: as §1
# [7] = tested on: HCT-116; test: Annexin V-FITC/PI-PE dual staining, HCT-116; type: cell-based, human; settings: respective IC50 dose, 24 h
# [8] = tested on: MCF-7 cells; test: Cell cycle study by flow cytometry after PI staining; type: cell-based, human; settings: IC50 concentration, 24 h; untreated 8.88%
# Method: (§2) Cell proliferation and cycle study using FACS: To detect cell proliferation, CFSE dye was used. At first, MCF-7 cells were stained with 5 μM of CFSE dye for 15 min at 37° C. followed by the addition of FBS containing RPMI 1640 medium to end the reaction. Then CFSE-stained cells were cultured with both oxaliplatin and complex 1 for 24 h in 35-mm plates. One set of stained untreated cells was seeded only in complete media without any compound. For inhibition of proliferation, cells were grown in a serum-free medium (starvation) for 24 h as a positive control. On the next day, the green fluorescence intensity of CFSE within each cell was measured by flow cytometry, and data were calculated using Flowjo software (version 10). For cell cycle study, MCF-7 cells were seeded at 1×10^5 cells per well in a 6-well plate, treated with an IC50 dose of complex 1 and oxaliplatin for 24 h, then digested by trypsinization and made into cell suspension (10^6 cells were harvested from each group) in 2% FBS containing 1×PBS, followed by fixation in 70% ethanol overnight at 4° C. After that cells were centrifuged at 850×g in a low-temperature centrifuge for 5 min. […] BD FACS flow cytometer was used to assess the difference in cell cycle phase distribution of nuclear DNA, which was then analyzed using Flowjo software (version 10). […]
# [9] = tested on: HCT-116; test: Cell cycle distribution (PI), HCT-116; type: cell-based, human; settings: 24 h
# [10] = tested on: SW-480; test: CFSE cell proliferation, SW-480; type: cell-based, human; settings: respective IC50 dose, 24 h
# [11] = tested on: SW-480; test: Cell cycle distribution (PI), SW-480; type: cell-based, human; settings: 24 h
# [12] = tested on: HCT-116; test: Wound healing (scratch) assay, HCT-116; type: cell-based, human; settings: IC50 dose, 12-48 h
# [13] = tested on: HCT-116; test: CFSE cell proliferation, HCT-116; type: cell-based, human; settings: respective IC50 dose, 24 h
# [14] = tested on: SW-480; test: Annexin V-FITC/PI-PE dual staining, SW-480; type: cell-based, human; settings: respective IC50 dose, 24 h
# [15] = tested on: human breast cancer cell line MCF-7; test: MTT assay, cytotoxicity on breast cancer cells
# Method: Breast cancer cell line and culture condition: Cells were cultured in a humidified air-jacked CO2 incubator (Thermo scientific, Heracellvios 160i). […] Human breast cancer cells lines MCF-7, were purchased from NCCS, Pune. […] The cells were cultured as monolayers in RPMI-1640 supplemented with 10% heat-inactivated fetal bovine serum (FBS), 1% penicillin-streptomycin, and 1% antibiotic-antimycotics and 1% non-essential amino acids at 37° C. in a fully humidified air-jacketed incubator of 5% CO2 and 95% air. All the experiments were performed from exponentially growing passage of 15 or less with 80% cell confluency and then sub-cultured to a fresh media to keep cells healthy and actively growing.
# The MTT assay is a quantitative, sensitive, and reliable colorimetric assay that mainly measures cell viability and proliferation. […] The cells viability was estimated spectrophotometrically by measuring absorbance at 570 nm using an ELISA plate reader. To calculate the cell viability percentage, the average absorbance of each treatment group was acquired and normalized based on the untreated control. The half inhibitory concentration (IC50 value) was calculated by putting the experimental data with the dose-response model (Prism 6, Version 6.0b, GraphPad Software).
# [16] = tested on: HCT-116 cells; test: TUNEL staining, fluorescence microscopy; type: cell-based, human; settings: 24 h
# [17] = tested on: MCF-7 cells; test: CFSE cell proliferation assay (FACS); type: cell-based, human; settings: IC50 dose, 24 h
# Method: as §2
smiles,measurement,setting,value
CCN1/C(=C/c2ccc3ccccc3[n+]2CC)C=Cc2ccccc21.[I-] [Dycenium-22],"toxicity of the inhibitor itself, SW-480",[1],non-toxic
same,"toxicity of the inhibitor itself, HCT-116",[2],non-toxic
"O=C1[O][Pt]2([NH][C@@H]3CCCC[C@H]3[NH]2)[O]C1=O [oxaliplatin, reference compound]",IC50,[3],7.87 ± 1.54 µM
same,"migration of cells vs untreated, SW-480",[4],reduced the migration of cells
same,late apoptotic (Annexin V+/PI+) population,[5]; untreated 2.87%,23.9%
same,early apoptotic population (Annexin V+/PI−),[5]; untreated 4.96%,9.58%
same,IC50,[6],16.7 ± 1.78 µM
same,"number of apoptotic cells vs untreated, HCT-116",[7],elevated the number of apoptotic cells
same,population of cells in the G2-M phase,[8],21.3%
same,"cell cycle distribution, HCT-116",[9],cell cycle arrest at G0-G1 phase
same,"cell proliferation, SW-480",[10],suppressed the cell proliferation
same,"cell cycle distribution, SW-480",[11],cell cycle arrest at G0-G1 phase
same,"migration of cells vs untreated, HCT-116",[12],reduced the migration of cells
same,"cell proliferation, HCT-116",[13],suppressed the cell proliferation
same,"number of apoptotic cells vs untreated, SW-480",[14],elevated the number of apoptotic cells
same,IC50,"[15]; read-out: IC50, cytotoxicity on MCF-7 cells, 24 h, mean±SD",31.4 ± 0.69 µM
same,IC50,"[15]; read-out: IC50, cytotoxicity on MCF-7 cells, 48 h, mean±SD",15.1 ± 1.81 µM
same,TUNEL-positive cells vs untreated control,[16],increased number of TUNEL-positive cells
same,CFSE staining intensity vs untreated controls,[17],significantly higher

# From US20250360099A2, “A significantly non-toxic novel Cobalt(III) Schiff base complex induces apoptosis via G2-M cell cycle arrest in human breast cancer cell line MCF-7 and cell cycle arrest of colon cancer cell lines HCT-116 and SW- 480 via G0-G1” (CHITTARANJAN NATIONAL CANCER INSTITUTE, priority 2023, published 2025)
